The text below walks through data of the METLIN SMRT retention time set (Domingo-Almenara et al. 2019).

Structures are written as SMILES.

This data set in a line: gradient 5% acetonitrile 3 min, to 50% in 2 min, to 85% in 15 min, held 3 min, 100 µL/min. The note with it: column: Zorbax Extend-C18 2.1 x 50 mm; eluents: water / acetonitrile, 0.1% formic acid. The procedure, abridged:
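Over 3 months, pure standards in mixtures of ~100 molecules were run by HPLC coupled to a quadrupole time-of-flight mass spectrometer in positive and negative ionization mode. The column was a Zorbax Extend-C18 (2.1 × 50 mm, 1.8 μm) at 100 μL/min, eluted with water and acetonitrile each holding 0.1% formic acid, with 40 μL dead and 900 μL dwell volumes. Retention time was determined from adduct peaks chosen by software and checked manually.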
In turn, `Cc1cccc(S(=O)(=O)N2CC(F)(F)C[C@H]2CN2CCc3ccccc3C2)c1` showed an RP-LC retention time of 773 s.

`O=C1CC(c2nc(-c3ccc(Cl)cc3)no2)CN1c1ccc(F)cc1` (centres undefined): the RP-LC retention time came out at 1000 s.

`Cc1c(-c2ccnc(N3CCCCC3)n2)cnc2nc(-c3ccc(Cl)cc3)nn12`: the RP-LC retention time amounted to 1400 s.

Take `Cc1cc(C)cc(-n2ccn3c(CCC(=O)NCCc4c[nH]c5ccccc45)nnc3c2=O)c1`: the RP-LC retention time stood at 744 s.

The molecule `O=C(C1CCN(c2cnc3nccnc3c2)CC1)N1CCN(c2ccccc2F)CC1` yielded an RP-LC retention time of 747 s.

With `COc1ccc2[nH]cc(CCNC(=O)CN3C(=O)CSc4cccn4-c4ccccc43)c2c1`, the RP-LC retention time was determined as 859 s.

The molecule `CCc1ccc(NC(=O)C2CCCN(c3ncnc4c3nc3n4CCCCC3)C2)cc1` (centres undefined) showed an RP-LC retention time of 824 s.

With `CC(C)N1C(=O)C(CC(=O)Nc2cccc(OC(F)(F)F)c2)=C2CCCCC21` (centres undefined), the RP-LC retention time is 1080 s.

Molecule `O=C(N[C@H]1C[C@@H]2C[C@H]1N(C(=O)c1ccc(F)c(Cl)c1)C2)c1ccccc1` gave an RP-LC retention time of 850 s.

As for `CCOc1nc2ccccc2nc1N1CCCC(C(=O)N2CCCC2)C1` (centres undefined), the RP-LC retention time turned out to be 1070 s.

`C1CCC(C(CC2CCCCN2)C2CCCCC2)CC1` (centres undefined) had an RP-LC retention time of 1060 s.

On to `O=C(N[C@H]1C[C@@H]2C[C@H]1CN2C(=O)Nc1ccc2c(c1)OCCO2)c1ccccc1`, for which the RP-LC retention time stood at 937 s.

Turning to `O=C(O)c1ccc(Nc2c3ccccc3nc3ccccc23)cc1`, the RP-LC retention time came out at 629 s.

`O=C(CCc1c[nH]c2ccccc12)N1[C@H]2CC[C@@H]1c1cnc(-c3ccccc3)nc1C2` registered an RP-LC retention time of 884 s.

Molecule `O=S(=O)(c1cccc2nsnc12)N1CC[C@@H]2COCCN(Cc3cccnc3)[C@@H]2C1` displayed an RP-LC retention time of 615 s.

The molecule `Fc1ccc(-c2noc(CCc3nnc4ccc(N5CCN(Cc6ccccc6)CC5)nn34)n2)cc1` gave an RP-LC retention time of 656 s.

Molecule `Cc1cccc(Nc2c(-c3nc(C)no3)cnc3nc(C)ccc23)c1` gave an RP-LC retention time of 762 s.

In turn, `Cc1ccc(C(O)CN2CCN(c3ccccn3)CC2)c(C)c1` (centres undefined) registered an RP-LC retention time of 573 s.

The molecule `O=C(COc1cccc(C(F)(F)F)c1)Nc1cc(N2CCOCC2)ncn1` displayed an RP-LC retention time of 775 s.

For the molecule `CS(=O)(=O)N1CCC(C(=O)Nc2ccc(Br)cc2F)Oc2ccccc21` (centres undefined), the RP-LC retention time worked out at 990 s.

For the molecule `O=C(NC1CCN(C(=O)c2cc(-c3cccc(Cl)c3)n[nH]2)CC1)c1cccs1`, the RP-LC retention time amounted to 718 s.

On to `O=C(NCC1CN(CC2CC2)CC12CCCCC2)Nc1cc(F)ccc1F` (centres undefined), for which the RP-LC retention time came to 718 s.

The molecule `COc1cccc(N2C=C(C(=O)N3CCOCC3)S(=O)(=O)c3ccccc32)c1` yielded an RP-LC retention time of 645 s.

In turn, `CCn1cnc(S(=O)(=O)N2CCC(C(=O)N3CCN(c4cccc(Cl)c4)CC3)CC2)c1` had an RP-LC retention time of 825 s.

Take `COCCN1C(=O)CCC2(C(=O)NCc3ccc(Cl)cc3)CCCC=C12` (centres undefined): the RP-LC retention time was 787 s.

Molecule `Cc1cccc(NC(=O)CSc2nnc(C)s2)c1` showed an RP-LC retention time of 715 s.

`COc1ccc(-n2c(=O)c(C(=O)Nc3ccc4c(c3)OCO4)c(O)c3cccnc32)cc1` came in with an RP-LC retention time of 1200 s.

For the molecule `O=c1n(Cc2ccccc2Cl)nc2ccc(S(=O)(=O)N3CCCCCC3)cn12`, the RP-LC retention time was found to be 1000 s.

`CC(C)(C)C(=O)N1CCC(C(=O)Nc2cccc(Br)c2)CC1` displayed an RP-LC retention time of 855 s.

Molecule `CCOC(=O)/C(=N\O)C1=CSC2=NNC(C)(C)N12` came in with an RP-LC retention time of 907 s.

In turn, `Cc1nc2cc(-c3noc(C4CC(=O)N(c5cccc(Cl)c5)C4)n3)ccc2o1` (centres undefined) came in with an RP-LC retention time of 958 s.

Consider `Cc1noc(C2CN(C(=O)Nc3ccc(C)c(C)c3)CC23CCOCC3)n1` (centres undefined), for which the RP-LC retention time turned out to be 768 s.

For the molecule `CC(=O)Nc1ccc(OCC(=O)O)nc1`, the RP-LC retention time was 574 s.

Consider `Cc1cccc(-c2noc(Cn3c(=O)n(-c4cccc(C)c4)c(=O)c4sccc43)n2)c1`, for which the RP-LC retention time was determined as 1090 s.

`Cc1sc(NC(=O)c2ccncc2)nc1-c1ccc2c(c1)NC(=O)C(C)O2` (centres undefined): the RP-LC retention time turned out to be 714 s.

With `COc1ccccc1CNC(=O)c1c(C)sc2ccn(CC(C)C)c(=O)c12`, the RP-LC retention time came out at 989 s.

`Cc1nc(S(=O)(=O)N2CCC(C(=O)NCc3ccc(Cl)cc3)CC2)cn1C`: the RP-LC retention time came to 709 s.

The molecule `CCNC(=O)C1CCCN(c2nc3ncn(CC(=O)Nc4ccccc4F)c(=O)c3s2)C1` (centres undefined) returned an RP-LC retention time of 647 s.

As for `CCOc1cccc2c1OC1(CCN(C(C)=O)CC1)N1N=C(c3ccc4c(c3)OCO4)CC21` (centres undefined), the RP-LC retention time is 826 s.

`CN(C)C[C@@H]1CN(C)C[C@H]1NC(=O)c1ccc(Br)cc1` showed an RP-LC retention time of 553 s.

`COc1cc([N+](=O)[O-])ccc1NC(=O)CCS(=O)(=O)c1ccc(Cl)cc1` displayed an RP-LC retention time of 854 s.

Regarding `COc1ccccc1CNC(=O)C1CCN(c2ccc(SCc3ccccc3)nn2)CC1`, the RP-LC retention time was found to be 778 s.

`Cc1nnc2cc(N3CCN(S(=O)(=O)c4ccccc4F)CC3)cnn12` showed an RP-LC retention time of 674 s.

`Cc1cc(N2CCCCC2)nc(N2CCN(C(=O)C3CCCCC3)CC2)n1` returned an RP-LC retention time of 728 s.

`CN(C)S(=O)(=O)c1ccc2c(c1)N(CC(=O)NCc1ccccn1)C(=O)C1CCCCN21` (centres undefined) showed an RP-LC retention time of 646 s.

For `CCn1cnc(S(=O)(=O)N2CCCC(C(=O)NC3CCCCCC3)C2)c1` (centres undefined), the RP-LC retention time came out at 740 s.

In the case of `COc1cccc(NC(=O)CN2C(=O)NC3(CCCCC3)C2=O)c1`, the RP-LC retention time was determined as 724 s.

In the case of `Cc1cc2nc(C)c(CCC(=O)O)c(C)n2n1`, the RP-LC retention time was found to be 597 s.

Regarding `COc1ccc(OC)c(NC(=O)COc2cc(C)nc(N3CCCC3)n2)c1`, the RP-LC retention time worked out at 650 s.

`COc1ccc(-c2noc(Cc3nnc(-c4cccc(Br)c4)o3)n2)cc1` had an RP-LC retention time of 1100 s.

`O=C1CCN(CC2CCCCC2)CCCC(c2nc(-c3cnccn3)no2)CCN1` (centres undefined) had an RP-LC retention time of 619 s.

Molecule `CCOc1ccc(C2Cn3nnc(-c4nc(-c5cccc(Cl)c5)no4)c3CO2)cc1` (centres undefined) gave an RP-LC retention time of 1320 s.

Molecule `c1ccc(-c2nnc(-c3ccccc3OCc3cn4ccccc4n3)o2)cc1` had an RP-LC retention time of 702 s.

`Cc1ccccc1Oc1nccnc1N1CCCC(C(=O)NCc2cccc(C(F)(F)F)c2)C1` (centres undefined) gave an RP-LC retention time of 1120 s.

In turn, `c1ccc(-n2nnc(-c3noc(-c4ccncc4)n3)c2-c2ccncc2)cc1` had an RP-LC retention time of 732 s.

For `Cc1ccc(S(=O)(=O)N2CCC3(CCN(c4cccnc4)C3)C2)c(C)c1` (centres undefined), the RP-LC retention time amounted to 684 s.

Molecule `COc1ccc(C2CC(=O)N(c3cccc(Cl)c3)C(=O)C2)cc1OC` displayed an RP-LC retention time of 881 s.

In turn, `CCNC(=O)c1cc(N2CCCC2)nc2ccccc12` came in with an RP-LC retention time of 841 s.

With `CCOC(=O)c1c(C)[nH]c(CCC(=O)NCCc2cccs2)c1C`, the RP-LC retention time was 822 s.

`CCCCn1nnnc1NCc1ccc2c(c1)n(C)c(=O)n2C` registered an RP-LC retention time of 647 s.

For `Cc1ccc2c(c1)N(S(C)(=O)=O)CCC(C(=O)Nc1cccc(Cl)c1)O2` (centres undefined), the RP-LC retention time came to 1020 s.

Consider `COCCn1cc2c3c(cccc31)CN(C(=O)c1cccc(Cl)c1)CC2`, for which the RP-LC retention time was determined as 960 s.

In the case of `Cc1cccc(NC(=O)N2CCC(N3CCN(Cc4ccccc4)C(=O)C3=O)CC2)c1`, the RP-LC retention time is 744 s.

The molecule `CSc1ccc(CNC(=O)CCc2nnc3c4cc(-c5ccccc5)nn4ccn23)cc1` gave an RP-LC retention time of 780 s.

Consider `CCC(C)NC(=O)C1CCN(S(=O)(=O)c2cc(-c3noc(C)n3)cs2)CC1` (centres undefined), for which the RP-LC retention time is 797 s.

On to `O=C(CN1C(=O)CCC1=O)Nc1nnc(-c2ccc(Cl)s2)o1`, for which the RP-LC retention time was 642 s.

`Nc1nc(-c2ccccc2)nn1C(=O)c1ccccc1` displayed an RP-LC retention time of 904 s.

`Cc1noc(C)c1CCC(=O)NCCOc1cccc2cccnc12` showed an RP-LC retention time of 548 s.

Molecule `C[C@@H](NC(=O)c1ccc(F)c(F)c1)C(=O)NCc1cscn1` registered an RP-LC retention time of 648 s.

Consider `CSc1cccc(NC(=O)c2cn(C)nc2S(=O)(=O)N2CCC(C)CC2)c1`, for which the RP-LC retention time came out at 1120 s.

The molecule `Cc1cccc(-c2cc3n(n2)CCCN(C(=O)Cc2cccc(C(F)(F)F)c2)C3)c1` gave an RP-LC retention time of 1030 s.

The molecule `CCCNC(=O)CCc1nc2ccccc2n(CC(=O)Nc2c(C)cccc2CC)c1=O` displayed an RP-LC retention time of 810 s.

On to `CCCc1cc(N2CCN(C(=O)c3cccc(C#N)c3)CC2)nc2nncn12`, for which the RP-LC retention time came out at 604 s.

Molecule `O=c1c2ccccc2n(Cc2nc(-c3cccc(C(F)(F)F)c3)no2)c(=O)n1CC1CCCO1` (centres undefined) came in with an RP-LC retention time of 1100 s.

`CCc1cccc(NC(=O)CSc2cc(N3CCN(c4ccc(OC)cc4)CC3)ncn2)c1` returned an RP-LC retention time of 1040 s.

Molecule `CCCCC(=O)Nc1cnc(N2CCNCC2)c(C(=O)N2CCCCC2C)c1` (centres undefined) returned an RP-LC retention time of 619 s.

`O=C(Cn1nc(N2CCSCC2)c2ccccc2c1=O)Nc1ccc(Cl)cc1` yielded an RP-LC retention time of 979 s.

`CC(C)CN1C(=O)c2ccccc2C(C(=O)NCCN2CCN(C)CC2)C1c1cccs1` (centres undefined) gave an RP-LC retention time of 617 s.

`O=C(NCc1ccccn1)C1CCN(c2cc(Oc3ccccc3)ncn2)CC1` registered an RP-LC retention time of 577 s.
